Test results taken from patent publication EP4722219A1 (Gan & Lee Pharmaceuticals Co., Ltd., priority 2023, dated 2024).

Assays:
Type in all cases: cell-based
LNCaP cells = experiment: Inhibition of LNCaP cell proliferation (WST-8); details: LNCaP FGC cells, 96 hours
Procedure, shortened: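 WST-8 absorbance at 450 nm measured proliferation after 96 h of compound exposure at 37 °C, 5% CO2. Dosing used nine 5-fold dilutions from a 10 µM top final concentration, applied to cells cultured overnight beforehand.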

VCaP cells = experiment: Inhibition of VCaP cell proliferation (WST-8); details: 168 hours
Procedure, shortened: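 Proliferation was read on day 9 as WST-8 absorbance at 450 nm after VCaP cells (15,000/well, DMEM/10% FBS, 37°C) were exposed from day 2 to compound at 9 points, 5-fold serial dilution, top final concentration 10 µM.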

AR protein = biological target: T1, AR protein (Homo sapiens, UniProt P10275, T878A); experiment: AR protein degradation in LNCaP cells (Western blot); details: 8 hours; for percent AR protein degradation at a fixed concentration at 0.01 µM / Degradation of AR protein in LNCaP cells, 10 nM (%): 10 nM; for percent AR protein degradation at a fixed concentration at 0.1 µM / Degradation of AR protein in LNCaP cells, 100 nM (%): 100 nM
T1 construct: host or cells: LNCaP FGC
T1 sequence (P10275 1-920 T878A): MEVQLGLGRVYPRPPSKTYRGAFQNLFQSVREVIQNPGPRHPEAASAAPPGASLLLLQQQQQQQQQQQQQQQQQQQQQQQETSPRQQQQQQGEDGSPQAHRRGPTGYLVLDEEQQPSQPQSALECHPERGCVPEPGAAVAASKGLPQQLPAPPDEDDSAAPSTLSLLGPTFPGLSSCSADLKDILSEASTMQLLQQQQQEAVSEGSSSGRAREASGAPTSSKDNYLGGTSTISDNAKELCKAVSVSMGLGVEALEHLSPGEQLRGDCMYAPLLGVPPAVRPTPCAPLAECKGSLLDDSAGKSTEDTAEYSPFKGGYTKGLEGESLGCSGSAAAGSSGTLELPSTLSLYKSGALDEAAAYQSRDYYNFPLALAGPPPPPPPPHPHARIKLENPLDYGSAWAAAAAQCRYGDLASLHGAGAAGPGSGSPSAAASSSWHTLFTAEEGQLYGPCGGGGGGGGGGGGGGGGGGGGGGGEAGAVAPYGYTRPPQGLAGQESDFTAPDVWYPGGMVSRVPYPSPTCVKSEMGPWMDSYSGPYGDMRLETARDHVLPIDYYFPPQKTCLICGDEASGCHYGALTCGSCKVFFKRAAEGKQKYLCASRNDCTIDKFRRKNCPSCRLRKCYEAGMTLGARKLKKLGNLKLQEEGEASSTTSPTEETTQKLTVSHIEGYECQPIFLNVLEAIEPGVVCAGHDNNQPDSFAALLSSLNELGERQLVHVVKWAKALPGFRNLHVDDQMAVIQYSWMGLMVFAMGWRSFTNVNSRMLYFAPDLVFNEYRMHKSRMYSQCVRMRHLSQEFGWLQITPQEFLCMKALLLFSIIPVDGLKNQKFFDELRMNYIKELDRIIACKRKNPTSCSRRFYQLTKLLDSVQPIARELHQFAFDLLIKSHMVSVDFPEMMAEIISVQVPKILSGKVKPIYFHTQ
Procedure, shortened: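 AR degradation rate derived from Western blot band densitometry, referenced to GAPDH, using total lysates of LNCaP cells treated 8 h with compound versus solvent control. Detection used infrared dual-color imaging after SDS-PAGE and PVDF transfer.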

COc1cc(O[C@H]2CC[C@H](NC(=O)c3ccc(N4CCC(N5CCC6(CC5)COc5cc7c(cc56)n(C)c(=O)n7C5CCC(=O)NC5=O)CC4)nn3)CC2)ccc1C#N (stereo partly drawn) [A-P-18, N-((1r,4r)-4-(4-cyano-3-methoxyphenoxy)cyclohexyl)-6-(4-(3-(2,6-dioxopyridyl-3-yl)-1-methyl-2-oxo-2,3-dihydro-1H,6H-spiro[benzofuro[5,6-d]imidazole-7,4'-piperidin]-1'-yl)piperidin-1-yl)pyridazine-3-carboxamide]
IC50 (LNCaP cells; Homo sapiens): 120 µM
IC50 (VCaP cells; Homo sapiens): < 0.0051 nM
percent AR protein degradation at a fixed concentration at 0.01 µM (AR protein): 43%
percent AR protein degradation at a fixed concentration at 0.1 µM (AR protein): 11%

COc1cc(O[C@H]2C(C)(C)[C@H](NC(=O)c3ccc(N4CCC(F)(CN5CCC6(CC5)COc5cc7c(cc56)n(C)c(=O)n7C5CCC(=O)NC5=O)CC4)cc3)C2(C)C)ccc1C#N (stereo partly drawn) [A-P-13]
IC50 (LNCaP cells; Homo sapiens): 61 µM
IC50 (VCaP cells; Homo sapiens): 4.3 nM
percent AR protein degradation at a fixed concentration at 0.01 µM (AR protein): 32%
percent AR protein degradation at a fixed concentration at 0.1 µM (AR protein): 35%

C[C@H]1CC2(CCN(c3ccc(C(=O)N4CCC(CN5CCC6(CCc7cc(C(=O)N[C@H]8CCC(=O)NC8=O)c(F)cc7O6)CC5)CC4)cc3)CC2)CN1c1ccc(C#N)c(Cl)c1 [A-P-35, 1'-((1-(4-((S)-2-(3-chloro-4-cyanophenyl)-3-methyl-2,8-diazaspiro[4.5]decan-8-yl)benzoyl)piperidin-4-yl)methyl)-N-((S)-2,6-dioxopiperidin-3-yl)-7-fluorospiro[chroman-2,4'-piperidin]-6-carboxamide]
IC50 (LNCaP cells; Homo sapiens): 0.28 µM
IC50 (VCaP cells; Homo sapiens): 4 nM
percent AR protein degradation at a fixed concentration at 0.01 µM (AR protein): 61%
percent AR protein degradation at a fixed concentration at 0.1 µM (AR protein): 70%

N-(1r,4r)-4-(3-chloro-4-cyanophenoxy)cyclohexy 1)-6-(4-(7-(2,6-dioxopiperidin-3-yl))-6-oxo-7,8-dihydro-2H,6H-dipyrido[2,3-e]isoindole-3,1'-cyclohexane-4',4‴-piperidin]-1"-yl)pyridazine-3-carboxamide [A-P-32]
IC50 (LNCaP cells): 0.57 µM
IC50 (VCaP cells): 1230 nM
Degradation of AR protein in LNCaP cells, 10 nM (%) (AR protein): 12%
Degradation of AR protein in LNCaP cells, 100 nM (%) (AR protein): 46%

COc1cc(O[C@H]2C(C)(C)[C@H](NC(=O)c3ccc(N4CCC(N5CC6(CCC7(CC6)COc6c7ccc7c6CN(C6CCC(=O)NC6=O)C7=O)C5)CC4)cc3)C2(C)C)ccc1C#N (stereo partly drawn) [A-P-2]
IC50 (LNCaP cells; Homo sapiens): 2.89 µM
IC50 (VCaP cells; Homo sapiens): 0.06 nM
percent AR protein degradation at a fixed concentration at 0.01 µM (AR protein): -42%
percent AR protein degradation at a fixed concentration at 0.1 µM (AR protein): 43%

COc1cc(O[C@H]2C(C)(C)[C@H](NC(=O)c3ccc(N4CCC(F)(CN5CCC6(CC5)COc5c6ccc(C(=O)N[C@H]6CCC(=O)NC6=O)c5F)CC4)cc3)C2(C)C)ccc1C#N [A-P-84]
IC50 (LNCaP cells; Homo sapiens): 0.11 µM
IC50 (VCaP cells; Homo sapiens): 490 nM
Degradation of AR protein in LNCaP cells, 10 nM (%) (AR protein): -6%
Degradation of AR protein in LNCaP cells, 100 nM (%) (AR protein): 33%

COc1cc(O[C@H]2C(C)(C)[C@H](NC(=O)c3ccc(N4CCC(C)(CN5CCC6(CC5)COc5cc7c(cc56)n(C)c(=O)n7C5CCC(=O)NC5=O)CC4)cc3)C2(C)C)ccc1C#N (relative stereo) [A-P-16]
IC50 (LNCaP cells; Homo sapiens): > 90 µM
IC50 (VCaP cells; Homo sapiens): 1 nM
Degradation of AR protein in LNCaP cells, 10 nM (%) (AR protein): 49%
Degradation of AR protein in LNCaP cells, 100 nM (%) (AR protein): 29%

Cn1c(=O)n(C2CCC(=O)NC2=O)c2ccc3c(c21)OCC31CCN(C2CC3(CCN(c4ccc(C(=O)N[C@H]5CC[C@H](Oc6ccc(C#N)c(Cl)c6)CC5)nn4)CC3)C2)CC1 (stereo partly drawn) [A-P-25]
IC50 (LNCaP cells; Homo sapiens): 47.7 µM
IC50 (VCaP cells; Homo sapiens): 0.14 nM
percent AR protein degradation at a fixed concentration at 0.01 µM (AR protein): 58%
percent AR protein degradation at a fixed concentration at 0.1 µM (AR protein): 31%

C[C@H]1CC2(CCN(c3ccc(N4CCC(CN5CCC6(CCc7cc(C(=O)N[C@H]8CCC(=O)NC8=O)c(F)cc7O6)CC5)CC4)cc3)CC2)CN1c1ccc(C#N)c(Cl)c1 [A-P-42, 1'-((1-(4-((S)-2-(3-chloro-4-cyanophenyl)-3-methyl-2,8-diazaspiro[4.5]decan-8-yl)phenyl)piperidin-4-yl)methyl)-N-((S)-2,6-dioxopiperidin-3-yl)-7-fluorospiro[chroman-2,4'-piperidin]-6-carboxamide]
IC50 (LNCaP cells; Homo sapiens): 0.19 µM
IC50 (VCaP cells; Homo sapiens): > 10000 nM
percent AR protein degradation at a fixed concentration at 0.01 µM (AR protein): 44%
percent AR protein degradation at a fixed concentration at 0.1 µM (AR protein): 77%

COc1cc(O[C@H]2CC[C@H](NC(=O)c3ccc(N4CCC(CN5CCC6(CC5)COc5c6ccc6c5n(C)c(=O)n6C5CCC(=O)NC5=O)CC4)nn3)CC2)ccc1C#N (stereo partly drawn) [A-P-22]
IC50 (LNCaP cells; Homo sapiens): 47.6 µM
IC50 (VCaP cells; Homo sapiens): 0.026 nM
percent AR protein degradation at a fixed concentration at 0.01 µM (AR protein): 48%
percent AR protein degradation at a fixed concentration at 0.1 µM (AR protein): 25%

COc1cc(O[C@H]2C(C)(C)[C@H](NC(=O)c3ccc(N4CCC(CN5CCC6(CCc7cc(F)c(C(=O)N[C@H]8CCC(=O)NC8=O)cc7O6)CC5)CC4)cc3)C2(C)C)ccc1C#N [A-P-39]
IC50 (LNCaP cells; Homo sapiens): 12.4 µM
IC50 (VCaP cells; Homo sapiens): > 10000 nM
Degradation of AR protein in LNCaP cells, 10 nM (%) (AR protein): 22%
Degradation of AR protein in LNCaP cells, 100 nM (%) (AR protein): 39%

N#Cc1ccc(O[C@H]2CC[C@H](NC(=O)c3ccc(N4CCC(N5CC6(CCC7(CC6)COc6c7ccc7c6CN(C6CCC(=O)NC6=O)C7=O)C5)CC4)nn3)CC2)cc1Cl (relative stereo) [A-P-1, N-((1r,4r)-4-(3-chloro-4-cyanophenoxy)cyclohexyl)-6-(4-(7'-(2,6-dioxopiperidin-3-yl)-6'-oxo-7',8'-dihydro-2'-H,6'-H-dihydro[azetidine-3,1'-cyclohexane-4',3"-furo[2,3-e]isoindol]-1-yl)piperidin-1-yl)pyridazine-3-carboxamide]
IC50 (LNCaP cells; Homo sapiens): > 10 µM
IC50 (VCaP cells; Homo sapiens): 0.026 nM
Degradation of AR protein in LNCaP cells, 10 nM (%) (AR protein): 66%
Degradation of AR protein in LNCaP cells, 100 nM (%) (AR protein): 48%

COc1cc(O[C@H]2C(C)(C)[C@H](NC(=O)c3ccc(N4CCC(CN5CCC6(CCc7cc(C(=O)N[C@H]8CCC(=O)NC8=O)c(F)cc7O6)CC5)CC4)nn3)C2(C)C)ccc1C#N [A-P-34, 1'-((1-(6-(((1R,3R)-3-(4-cyano-3-methoxyphenoxy)-2,2,4,4-tetramethylcyclobutyl)carbamoyl)pyridazin-3-yl)piperidin-4-yl)methyl)-N-((S)-2,6-dioxopiperidin-3-yl)-7-fluorospiro[chroman-2,4'-piperidin]-6-carboxamide]
IC50 (LNCaP cells; Homo sapiens): 0.87 µM
IC50 (VCaP cells; Homo sapiens): 0.29 nM
Degradation of AR protein in LNCaP cells, 10 nM (%) (AR protein): 72%
Degradation of AR protein in LNCaP cells, 100 nM (%) (AR protein): 85%

COc1cc(O[C@H]2C(C)(C)[C@H](NC(=O)c3ccc(N4CCC(F)(CN5CCC6(CCc7cc(F)c(C(=O)N[C@H]8CCC(=O)NC8=O)cc7O6)CC5)CC4)cc3)C2(C)C)ccc1C#N [A-P-41]
IC50 (LNCaP cells; Homo sapiens): 18.6 µM
IC50 (VCaP cells; Homo sapiens): > 10000 nM
Degradation of AR protein in LNCaP cells, 10 nM (%) (AR protein): -37%
Degradation of AR protein in LNCaP cells, 100 nM (%) (AR protein): -31%

COc1cc(O[C@H]2C(C)(C)[C@H](NC(=O)c3ccc(N4CCC5(CC4)CC(N4CCC6(CCc7cc(C(=O)N[C@H]8CCC(=O)NC8=O)c(F)cc7O6)CC4)C5)cc3)C2(C)C)ccc1C#N [A-P-37, 1'-(7-(4-(((1R,3R)-3-(4-cyano-3-methoxyphenoxy)-2,2,4,4-tetramethylcyclobutyl)carbamoyl)phenyl)-7-azaspiro[3.5]nonan-2-yl)-N-((S)-2,6-dioxopiperidin-3-yl)-7-fluorospiro[chroman-2,4'-piperidin]-6-carboxamide]
IC50 (LNCaP cells; Homo sapiens): 2.23 µM
IC50 (VCaP cells; Homo sapiens): 2890 nM
Degradation of AR protein in LNCaP cells, 10 nM (%) (AR protein): 10%
Degradation of AR protein in LNCaP cells, 100 nM (%) (AR protein): 63%
